Laboratory results taken from patent US5712148A (Synaptic Pharmaceutical Corporation, priority 1995, dated 1998).
“And” between values parts separate entries of the source, which are not always exact repeats. Identical values can stand only once. Like-named read-outs stand apart in the source and are kept apart here.

Experiments:
[1] = biological target: T1, hS1a (human betaine/GABA transporter, hBGT) (Homo sapiens, UniProt P48065); assay: Inhibition of specific [^3 H]GABA uptake in COS7 (transient) or LMtk- (stable; hS1a-3) cells expressing hS1a; format: cell-based; set-up: Translation of a long open reading frame predicts a protein of 614 amino acids with 12 putative transmembrane domains; expressed in transfected cells; conditions: for IC50: estimated from data for one or two concentrations of inhibitor (Table 1), not corrected for [^3 H]GABA concentration; for inhibition at 100 µM / inhibition at 500 µM: read-out: % Inhibition of specific [^3 H]GABA uptake; for inhibitory potency at hS1a in words: inhibition of [^3 H]GABA uptake; for potency at hS1a vs dog and mouse transporters, in words: comparison across clones
T1 sequence (P48065 1-614 C10Y): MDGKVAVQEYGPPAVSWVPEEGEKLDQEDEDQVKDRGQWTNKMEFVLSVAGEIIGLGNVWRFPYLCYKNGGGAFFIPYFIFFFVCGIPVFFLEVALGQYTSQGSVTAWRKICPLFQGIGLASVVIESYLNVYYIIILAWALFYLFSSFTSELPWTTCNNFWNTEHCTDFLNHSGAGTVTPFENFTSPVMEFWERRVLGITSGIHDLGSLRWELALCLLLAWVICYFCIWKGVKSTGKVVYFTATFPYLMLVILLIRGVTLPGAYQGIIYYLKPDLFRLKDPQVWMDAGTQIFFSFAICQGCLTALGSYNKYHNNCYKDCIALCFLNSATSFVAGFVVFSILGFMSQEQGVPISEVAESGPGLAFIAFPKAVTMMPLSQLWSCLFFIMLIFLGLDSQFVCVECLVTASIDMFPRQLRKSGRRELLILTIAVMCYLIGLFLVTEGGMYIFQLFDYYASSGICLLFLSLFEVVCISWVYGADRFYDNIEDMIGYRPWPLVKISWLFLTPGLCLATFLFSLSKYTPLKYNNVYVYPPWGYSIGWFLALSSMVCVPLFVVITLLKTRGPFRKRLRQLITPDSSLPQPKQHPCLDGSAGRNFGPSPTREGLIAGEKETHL
Experimental: (§1) Transport was also measured in suspension. The details of this method will described in detail in a subsequent publication (Borden et al., manuscript in preparation). Briefly, transient (COS-7) or stable (LM) transfectants were removed from culture plates with trypsin/EDTA, and transferred to suspension culture. The cells were grown in a temperature-controlled shaking incubator, using a medium containing methylcellulose. To measure transport the cells were washed by centrifugation, and resuspended in HBS. The assay was performed in 96-well microtiter plates (total volume=0.25 ml/well). […] Cell-associated radioactivity retained on the filters was determined by scintillation counting.

[2] = tested on: mouse betaine/GABA transporter; conditions: data from Lopez-Corcuera et al., 1992; estimated from one or two concentrations of inhibitor; cited from earlier work
[3] = tested on: dog betaine/GABA transporter; conditions: data from Yamauchi et al., 1992; estimated from one or two concentrations of inhibitor; cited from earlier work
[4] = tested on: mouse betaine/GABA transporter; assay: Inhibition at mouse betaine/GABA transporter clone (literature comparison); format: cell-based; conditions: comparison across clones
Experimental: (§2) For example, the dog and mouse clones were expressed in oocytes, whereas we employed COS-7 or LMtk^- fibroblasts for the human clone. Additionally, we measured transport for 10 minutes at 37° C., while the dog clone was assayed for 30 minutes at 25° C. […] Another important factor is our use of suspension cultures.

GAT-3 = biological target: T2, GAT-3 (Rattus norvegicus, UniProt P31647); assay: Affinity of GABA at GAT-3, suspension vs attached cells; format: cell-based; conditions: Borden, unpublished
T2 sequence (P31647 1-627): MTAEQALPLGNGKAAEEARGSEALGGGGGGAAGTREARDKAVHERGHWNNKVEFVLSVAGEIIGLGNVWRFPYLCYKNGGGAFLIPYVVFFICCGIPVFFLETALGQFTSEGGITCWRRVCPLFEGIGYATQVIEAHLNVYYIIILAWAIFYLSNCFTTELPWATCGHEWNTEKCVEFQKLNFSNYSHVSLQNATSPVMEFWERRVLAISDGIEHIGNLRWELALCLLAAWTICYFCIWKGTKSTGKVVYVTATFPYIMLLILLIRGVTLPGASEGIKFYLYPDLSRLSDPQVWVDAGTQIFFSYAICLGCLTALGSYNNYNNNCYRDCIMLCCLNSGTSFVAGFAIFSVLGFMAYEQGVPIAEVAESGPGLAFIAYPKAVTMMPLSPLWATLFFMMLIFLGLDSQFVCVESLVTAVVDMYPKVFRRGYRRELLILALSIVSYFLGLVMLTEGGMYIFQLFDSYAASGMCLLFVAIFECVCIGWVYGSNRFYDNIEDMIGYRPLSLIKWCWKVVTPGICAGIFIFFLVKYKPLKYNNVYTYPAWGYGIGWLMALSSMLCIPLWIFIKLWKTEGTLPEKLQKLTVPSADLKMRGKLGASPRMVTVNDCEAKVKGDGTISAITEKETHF
Experimental: as §2

[5] = tested on: dog betaine/GABA transporter; conditions: Yamauchi et al., 1992, cited from earlier work
[6] = biological target: T1, hS1a (human betaine/GABA transporter, hBGT); conditions: in words
Experimental: as §1, §2

GAT-2 = biological target: T3, GAT-2 (Rattus norvegicus, UniProt P31646); assay: Affinity of GABA at GAT-2, suspension vs attached cells; format: cell-based; conditions: Borden, unpublished
T3 sequence (P31646 1-602): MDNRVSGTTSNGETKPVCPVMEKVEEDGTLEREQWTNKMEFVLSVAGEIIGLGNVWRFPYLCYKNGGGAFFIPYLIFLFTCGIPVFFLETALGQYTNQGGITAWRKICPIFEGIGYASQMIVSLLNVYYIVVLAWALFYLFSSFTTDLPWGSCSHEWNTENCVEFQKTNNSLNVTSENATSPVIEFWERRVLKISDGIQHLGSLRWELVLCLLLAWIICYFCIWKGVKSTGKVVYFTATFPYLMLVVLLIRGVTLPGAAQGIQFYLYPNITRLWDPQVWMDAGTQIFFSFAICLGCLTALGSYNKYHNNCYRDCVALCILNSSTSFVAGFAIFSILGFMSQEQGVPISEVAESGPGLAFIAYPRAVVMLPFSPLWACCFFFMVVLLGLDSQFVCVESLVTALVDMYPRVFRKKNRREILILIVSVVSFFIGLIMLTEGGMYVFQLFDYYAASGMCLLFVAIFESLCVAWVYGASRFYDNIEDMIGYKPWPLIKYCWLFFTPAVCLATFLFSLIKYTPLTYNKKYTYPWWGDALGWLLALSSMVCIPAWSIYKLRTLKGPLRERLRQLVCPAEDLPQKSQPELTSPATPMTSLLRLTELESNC
From the text: […]. […] Another important factor is our use of suspension cultures. […]. Liu et al., 1992a).

Row | Molecule | inhibition at 100 µM [1] [%] | IC50 [2] [µM] | IC50 ([1]; read-out: IC50 (human)) | inhibitory potency at hS1a in words [1] | further results
1 | C=C[C@H]1C[N@@]2CC[C@H]1C[C@@H]2[C@@H](O)c1ccnc2ccc(OC)cc12 [quinidine] | 92 | 49 |  |  | IC50 ([1]; IC50 (human)): 488 µM and ~50 µM; inhibition at 500 µM [1]: 85%
2 | O=C(CCc1ccc(O)cc1)c1c(O)cc(O)cc1O [phloretin] |  | 37 | 258 µM |  | inhibition at 500 µM [1]: 66%; IC50 [3]: 200 µM; potency at mouse BGT vs dog or human clones, in words [4]: more potent at the mouse BGT than at the dog or human clones
3 | N[C@@H]1CCC[C@H](C(=O)O)C1 (relative stereo) [ACHC, cis-3-aminocyclohexanecarboxylic acid] | 0 |  |  | weak inhibitors | 
4 | C[N+](C)(C)CC(=O)O [betaine] |  | 206 | 258 µM and 150 to 250 µM |  | inhibition at 500 µM [1]: 66 ± 15%
5 | NCCC(=O)O [β-alanine] | 42 ± 22 | 1900 | 138 µM and 150 to 250 µM |  | potency at hS1a vs dog and mouse transporters, in words [1]: more potent at hS1a than at either of the other two transporters; IC50 [3]: 2400 µM
6 | O=C(O)C1CCCNC1 (centres unmarked) [nipecotic acid] | 34 ± 19 |  |  |  | potency at hS1a vs dog and mouse transporters, in words [1]: more potent at hS1a than at either of the other two transporters; IC50 [3]: 4700 µM
7 | NCCCC(=O)O [GABA, γ-aminobutyric acid] |  |  |  |  | increase in affinity of GABA in suspension vs attached cells (GAT-3) (GAT-3): about 10 fold; higher affinity of the transporter for GABA than for betaine [5]: 4 fold; affinity for GABA vs betaine, in words ([5]; betaine transporter cloned from MDCK dog kidney cells): higher affinity for GABA than for betaine; affinity of hBGT for GABA vs other GABA transporters [6]: lower than that of other GABA transporters; increase in affinity of GABA in suspension vs attached cells (GAT-2) (GAT-2): about 10 fold
8 | O=C(O)C1=CCCNC1 [guvacine] | 5 ± 5 | 2800 | 1900 µM | weak inhibitors | 
9 | hydroxynipecotic acid [OH-nipecotic acid] |  |  |  | weak inhibitors | IC50 ([1]; 10 min, listed as Hydroxynipecotic acid, 10 min, read-out: IC50 (human)): > 1000 µM; IC50 ([1]; 10 min, read-out: IC50 (human)): 1150 µM; % Inhibition of specific [^3 H]GABA uptake ([1]; inhibitor 100 μM, 50 nM [^3 H]GABA, 10 minutes, 37° C., mean ± SEM): 8 ± 8%
10 | Cc1ccsc1C(=CCCN1CCC[C@@H](C(=O)O)C1)c1sccc1C [(R)-Tiagabine] | 12 ± 7 |  |  | weak inhibitors | 
11 | NCC[C@H](N)C(=O)O [L-DABA, L-(2,4)diaminobutyric acid] | 24 ± 24 |  |  |  | 
